One test relates to SREBP-2 mRNA. As to the kind of experiment: Quantitative RT-PCR for proSREBP-2 mRNA in Huh7 cells. The class given is cell-based, human. Conditions: Huh7, 24 h, 5 μM Q3G. The procedure: FIGS. 9A and 9B are graphs illustrating the proSREBPs-2 mRNA and SREBP-2-related protein levels for cells exposed to Q3G. Cells were incubated for 24 h in medium 5 μM Q3G. FIG. 9A illustrates the results for quantitative RT-PCR for proSREBPs-2 mRNA levels. Values are the means of triplicate experiments±SEM. FIG. 9B illustrates the results for semi-quantitative immunoblotting for cellular SREBP-2-related protein. Mat/Prec values, the averages of two experiments, represent density ratios of the 65-kDa SREBP over the 158-kDa proSREBPs after normalization for β-actin.
At passage, Huh7 cells were routinely seeded at sub-confluence (˜10^6 cells/10-cm dish) in Dulbecco's modified Eagle's medium (DMEM) containing 10% fetal bovine serum (FBS) or LPDS (for experiments) and 50 μg/ml gentamycin. They were incubated overnight at 37° C., in a humidified 5% CO2-95% air atmosphere. Cells were treated or not with Q3G at defined concentrations and for defined lengths of time. Media were collected and centrifuged at 200 g for 5 min to sediment suspended cells; supernatants were collected and supplemented with 0.33 volumes of a 3×-concentrated PIC. […]
Standard curves were established using varying amounts of purified and quantified cDNA amplicons of each mRNA. […]

Another test deals with PCSK9. As to the kind of experiment: Pulse-chase metabolic labeling and immunoprecipitation of PCSK9-related proteins in Huh7 cells. The class given is cell-based, human. Particulars: Huh7 pre-incubated 24 h with 5 μM Q3G. The protocol:
For metabolic labeling, Huh7 cells were seeded in a 12-well plate 8×10^5 cells/well in 1.5 ml/well of complete medium and incubated overnight. After a rinse with Dulbecco's PBS (PBS-D), cell monolayers were overlaid with 1.5 ml of DMEM/10% LPDS without or with 5 μM Q3G, and were incubated for 24 h. Fresh serum-free medium (SFM, 1.5 ml) was substituted, and cells were allowed to incubate for 30 min to reduce endogenous Met and Cys. The medium was removed and replaced with fresh SFM (0.75 ml/well) containing 300 μCi/ml^35S-Met/Cys, and cells were incubated at 37° C. for 20 min to label de novo biosynthesized proteins (pulse-labeling). The radioactive medium was replaced with DMEM/0.5% LPDS containing 10 mM non-radioactive Met/Cys and cells were incubated at 37° C. for 0, 15, 30, 60, 90 and 120 min (chase). Conditioned media and cell lysates were processed as described above.
Radioactive conditioned media or cell lysates (0.1 ml) were supplemented with […] of normal rabbit serum and 15 μl of a 50% (w/v) suspension of Protein A-agarose. After a 1-h incubation at 4° C. with rotational mixing, the samples were centrifuged at 3,000 g for 5 min at 4° C. Supernatants were supplemented 2 μl of rabbit anti-PCSK9 [35], and incubated as above. […] Specific radioactive protein bands were visualized and quantified on a Typhoon Phosphorimager (Molecular Dynamics). […]

Molecules are shown by their SMILES.

In the case of `O=c1c(O[C@@H]2O[C@H](CO)[C@@H](O)[C@H](O)[C@H]2O)c(-c2ccc(O)c(O)c2)oc2cc(O)cc(O)c12` [Q3G, quercetin-3-O-β-D-glucoside], the “effect on level of SREBP-2 mRNA” value in the test on SREBP-2 mRNA was “no effect”. The “rate of intracellular proPCSK9 precursor processing versus untreated cells” value in the test with PCSK9 is “no obvious difference”. For the same molecule, in the test with PCSK9 (control cells 60 min), the “time to half-maximum accumulation of PCSK9 in culture media (percent of total PCSK9 proteins)” value was 90 min.

These data come from patent US20150190369A1, “QUERCETIN-3-GLUCOSIDE AND USES THEREOF” (priority 2012, published 2015).
